Experimental data published in patent US20260234116A1, “CYTOTOXIC EPOXYKETONE COMPOUNDS, PRECURSORS, COMPOSITIONS, AND METHODS OF USE” (Memorial Sloan-Kettering Cancer Center, priority 2023, published 2026).
Like-named read-outs stand apart in the source and are kept apart here.

Columns and labels:
EpnF [1] = molecular target: T1, EpnF (Streptomyces hygroscopicus, UniProt V5RMU9); test: Semiquantitative epoxide capture assay (EpnF-catalyzed epoxyketone formation); format: biochemical; settings: 1 μM EpnF; for EpnF-catalyzed formation of epoxyketone (epoxide capture): 250 μM β-ketoacid substrate, 1 h, positive control 11n (FIG. 1); for EpnF-catalyzed conversion to epoxyketone (epoxide capture): 240 μM β-ketoacid substrate (FIG. 2)
T1 sequence (V5RMU9 entry or part of it): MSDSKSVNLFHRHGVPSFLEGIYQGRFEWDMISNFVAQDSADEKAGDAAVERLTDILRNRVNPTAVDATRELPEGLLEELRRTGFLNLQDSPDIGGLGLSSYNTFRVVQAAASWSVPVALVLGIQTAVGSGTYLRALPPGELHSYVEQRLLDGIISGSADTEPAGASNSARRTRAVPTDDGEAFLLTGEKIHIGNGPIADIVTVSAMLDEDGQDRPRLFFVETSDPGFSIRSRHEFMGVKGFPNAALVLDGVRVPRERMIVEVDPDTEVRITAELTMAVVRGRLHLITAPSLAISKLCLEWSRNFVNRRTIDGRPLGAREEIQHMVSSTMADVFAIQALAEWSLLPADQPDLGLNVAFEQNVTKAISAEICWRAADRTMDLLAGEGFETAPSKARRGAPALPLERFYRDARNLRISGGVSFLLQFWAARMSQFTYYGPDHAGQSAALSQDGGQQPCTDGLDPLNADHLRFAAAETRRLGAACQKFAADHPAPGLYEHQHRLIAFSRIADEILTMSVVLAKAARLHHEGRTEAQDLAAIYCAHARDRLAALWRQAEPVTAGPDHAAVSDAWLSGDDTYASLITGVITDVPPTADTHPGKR
Description: Recombinant EpnF was diluted to 1 μM in 180 μL EpnF Buffer in an 1.5 mL Eppendorf tube. The β-ketoacid 11 was added at various concentrations to a total reaction volume of 200 μL. The mixture was incubated in a heated shaker at 37° C. and 225 rpm for 1 h. The reaction mixture (30 μL×3 technical replicates) was transferred to a white, opaque 96-well plate (PerkinElmer, OptiPlate-96). Each plate also contained 30 μL×3 technical replicates of EpnF Buffer as a negative control. To each well, 15 μL of 125 mM nicotinamide in EpnF Buffer was added and mixed by pipetting. The plate was sealed with an adhesive foil cover (VWR Adhesive Foil for Microplates) and heated in an oven at 80° C. for 1 h. The plate was cooled to rt and 25 μL of 15% (v/v) acetophenone in EtOH and 25 μL of 1 M potassium hydroxide in EtOH were added to each well, then mixed by pipetting. The plate was cooled on ice for 10 min, then 125 μL formic acid was added to each well. The plate was resealed and heated in an oven at 100° C. for 5 min. The plate was cooled on ice for 5-10 min, then analyzed (λex 370 nm, λem 430 nm) on a fluorescence plate reader (Molecular Devices Spectramax M3).
We adapted a reported epoxide capture assay [Nelis, H. J. C. F.; Sinsheimer, J. E. (1981) A sensitive fluorimetric procedure for the determination of aliphatic epoxides under physiological conditions. Anal. Biochem. 115, 151-157.] to 96-well plate format to detect formation of the epoxyketone products semiquantitatively. Each β-ketoacid substrate 11 was incubated with recombinant, purified EpnF (1 h), then reacted with nicotinamide and acetophenone (1 h) to form a fluorescent 1,6-naphthyridinone 24. The fluorescent signals were normalized to that resulting from the known substrate β-ketoacid 11n as a positive control [Zabala, D.; Cartwright, J. W.; Roberts, D. M.; Law, B. J. C.; Song, L.; Samborskyy, M.; Leadlay, P. F.; Micklefield, J.; Challis, G. L. (2016) A flavin-dependent decarboxylase-dehydrogenase-monooxygenase assembles the warhead of α,β-epoxyketone proteasome inhibitors. J. Am. Chem. Soc. 138, 4342-4345.].

[2] = Stability of β-ketoacid substrates (decarboxylation, 1H-NMR or SPE-MS/MS); format: physicochemical
Description: To assess rates of decarboxylation under conditions relevant to storage, biochemical assays, and cellular assays, we investigated the stability of eponemycin-based β-ketoacids 11a and 11c under a variety of conditions as shown in below Table C.
For samples stored neat, β-ketoacid 11 (lyophilized powder) was aliquoted into 1.5-2 mg samples in glass vials and placed under Ar. Samples were stored on the bench top (20-25° C.), in at 4° C. refrigerator or in a −20° C. freezer. At each time point, an entire aliquot was dissolved in CD3OD (600 μL) analyzed by ^1H-NMR for decarboxylation to the corresponding isopropyl ketone byproduct 22. The degree of decarboxylation was determined by comparing integrations of two singlet peaks at 1.40 and 1.33 ppm, arising from the α,α-dimethyl groups in the β-ketoacid 11, to two doublet peaks at 1.09 and 1.06 ppm, arising from the isopropyl methyl groups in the decarboxylation product 22. A septuplet corresponding to the methine proton of the isopropyl group was also observed at 2.91 ppm.
For samples stored in PBS, aliquots of β-ketoacid 11 were dissolved in deuterated PBS (600 μL) and incubated in a 37° C. shaking incubator. At each time point, one aliquot was removed and analyzed by ^1H-NMR as above. NMR changes observed in deuterated PBS were similar to those observed in CD3OD above.
For samples stored in RPMI, β-ketoacid 11 (lyophilized powder) was dissolved in EtOH to a working stock concentration of 20 mM. The sample was diluted in RPMI to 100 μM (1000 μL) and incubated at 37° C. At each time point, an aliquot (50 μL) was removed from the master sample, transferred to a 96-well plate, quenched with 4 vol MeOH, centrifuged at 4,000 g to precipitate debris, and immediately analyzed by SPE-MS/MS to quantitate β-ketoacid 11 remaining.

EpnF [3] = molecular target: T1, EpnF; test: Enzyme kinetic analysis by SPE-MS/MS assay; format: biochemical; settings: relative to 11n
Description: SPE-MS/MS analyses were carried out on an Agilent RapidFire 365 High-Throughput Mass Spectrometry System with 6495 triple quadrupole mass spectrometer. Determination of initial velocity: EpnF stock at 100 μM was diluted 10-fold in EpnF Buffer to a 10 μM working solution, which was further diluted to 8 concentrations (10-0.005 μM) in EpnF Buffer (intermediate volume 1350 μL, concentrations calculated for 1500 μL theoretical final volume corresponding to addition of substrate solutions below). The 8 EpnF enzyme dilutions were aliquoted (90 μL) into the corresponding 8 tubes of PCR tube strips (12 strips, one per time point; Thermo Scientific, AB-2000). The β-ketoacid 11 (20 mM in EtOH) was diluted to 10 μM in EpnF Buffer, then 10 μL of this solution was added to each of the tubes (1 μM final concentration, 100 μL final volume) to initiate the reaction. Samples were incubated in a heated shaker at 37° C. and 225 rpm for up to 120 min, and one tube strip was removed at each time point. Each tube was quenched with 5% formic acid in EpnF Buffer (100 μL), pipetted vigorously, and flash frozen on dry ice. Samples were thawed then centrifuged to precipitate protein and transferred to a conical-bottom 96-well plate (Thermo Scientific/Nunc, 249944) for SPE-MS/MS analysis. Measurement of Km and Vmax: Using the data from the initial velocity experiments above, an appropriate EpnF enzyme concentration was selected for each β-ketoacid 11 at which the rate of conversion to the epoxyketone 12 remained linear at 10 min (0.50 μM for 11n and 0.05 μM for all other substrates). Each substrate (20 mM in EtOH) was diluted to 1 mM in EpnF Buffer, then diluted to 8 concentrations (100-0.5 μM) in EpnF Buffer (intermediate volume 1350 μL, concentrations calculated for 1500 μL theoretical volume corresponding to addition of enzyme solutions below). The 8 substrate dilutions were aliquoted (90 μL) into the corresponding 8 tubes of PCR tube strips (12 strips, one per time point; Thermo Scientific, AB-2000). The EpnF enzyme stock solution was diluted in EpnF Buffer to the appropriate concentration for each substrate, then 10 μL of this solution was added to each of the tubes (100 μL final volume) to initiate the reaction. For the 0-min time point, 5% formic acid in EpnF Buffer was added to the β-ketoacid substrate before addition of the enzyme. Samples were incubated in a heated shaker at 37° C. and 225 rpm for up to 10 min, and one tube strip was removed at each time point. Each tube was quenched by addition of 5% formic acid in EpnF Buffer (100 μL), pipetted vigorously, and flash frozen on dry ice. Samples were thawed then centrifuged to precipitate proteins and the supernatants were transferred to a conical-bottom 96-well plate (Thermo Scientific/Nunc, 249944) for SPE-MS/MS analysis. Km and Vmax values for each substrate were calculated by Michaelis-Menten analysis. To obtain a quantitative assessment of EpnF substrate specificity, we developed a kinetic assay (10 min) using SPE-MS/MS (solid-phase extraction/triple quadrupole mass spectrometry; Agilent RapidFire 365 with 6495 MS) to enable direct detection of both substrates and products.

Raji B-cell lymphoma = test: Cytotoxicity of epoxyketones, CellTitre-Glo, 48 h; format: cell-based; settings: Homo sapiens
Description: (§1) Cytotoxicity Assays. Cancer cell lines (ATCC: U266 multiple myeloma, EL4 mouse lymphoma, Raji B-cell lymphoma) were cultured in Roswell Park Memorial Institute (RPMI) medium supplemented with 10% fetal bovine serum (FBS), 2 mM L-glutamine, 100 IU/mL penicillin, 100 μg/mL nonessential amino acids, 1 mM sodium pyruvate, and 57 μM β-mercaptoethanol. Cells (90 μL) were seeded in the inner 60 wells of an opaque-wall, clear flat-bottom 96-well plate (Corning/Falcon, 351177) at 20,000 cells per well. The outer perimeter wells were filled with 200 μL PBS to reduce evaporation in the central 60 wells. Epoxyketones 12 (20 mM in DMSO) were diluted in RPMI media to 1 mM (5% DMSO final concentration). Each epoxyketone was then diluted log-fold into 10 concentrations with 5% DMSO in RPMI. Each epoxyketone solution (10 μL) was added to the cells for a 0.5% DMSO final concentration across all wells and final epoxyketone concentrations of 100-0.005 μM. Negative control wells were treated with 10 μL of 5% DMSO in RPMI. Cells were incubated with compounds for 48 h, then cytotoxicity was measured with the CellTitre-Glo assay (Promega G9241).

EL4 mouse lymphoma = test: Cytotoxicity of epoxyketones, CellTitre-Glo, 48 h; format: cell-based; settings: EL4, 48 h
Description: as §1

U266 multiple myeloma = test: Cytotoxicity of epoxyketones, CellTitre-Glo, 48 h; format: cell-based; settings: Homo sapiens, U-266, U266, 48 h
Description: as §1

Row | Compound | EpnF-catalyzed conversion to epoxyketone (epoxide capture) (EpnF [1]) | IC50 (Raji B-cell lymphoma; read-out: IC50) [µM] | IC50 (Raji B-cell lymphoma; read-out: log IC50 (converted)) [µM] | IC50 (EL4 mouse lymphoma; read-out: IC50) [µM] | IC50 (EL4 mouse lymphoma; read-out: log IC50 (converted)) [µM] | IC50 (U266 multiple myeloma; read-out: IC50) [µM] | IC50 (U266 multiple myeloma; read-out: log IC50 (converted)) [µM] | other results
1 | CC(C)CCCCC(=O)N[C@@H](CO)C(=O)N[C@@H](CC(C)C)C(=O)C(C)(CO)C(=O)O (single isomer, unassigned) [Compound 11c] | – | – | – | – | – | – | – | EpnF-catalyzed formation of epoxyketone (epoxide capture) (EpnF [1]): no epoxide formation was detected; half-life ([2]; deuterated PBS, PBS, 37° C.): 15 min; stability / rate of decarboxylation (in words) ([2]; neat at low temperatures, buffer or media at 37° C.): considerably faster
2 | C=C(C)C[C@H](NC(=O)[C@H](CO)NC(=O)CCCCC(C)C)C(=O)C(C)(CO)C(=O)O (single isomer, unassigned) [Compound 11d] | – | – | – | – | – | – | – | EpnF-catalyzed formation of epoxyketone (epoxide capture) (EpnF [1]): no epoxide formation was detected
3 | C=C(C)C[C@H](NC(=O)[C@H](CO)NC(=O)CCCCC(C)C)C(=O)C(C)(C)C(=O)O [Compound 11b, (S)-4-((S)-3-Hydroxy-2-(6-methylheptanamido)propanamido)-2,2,6-trimethyl-3-oxohept-6-enoic acid] | – | – | – | – | – | – | – | EpnF-catalyzed formation of epoxyketone (epoxide capture) (EpnF [1]): lower levels; converted more efficiently than 11n (EpnF [3]): ≈ 20 fold
4 | CC(C)CCCCC(=O)N[C@@H](CO)C(=O)N[C@@H](CC(C)C)C(=O)C(C)C(=O)O (stereo partly shown) [Compound 11e] | not tolerated | – | – | – | – | – | – | –
5 | CC(C)CCCCC(=O)N[C@@H](CO)C(=O)N[C@@H](C)C(=O)C(C)(C)C(=O)O [Compound 11f, (4S)-4-[(2S)-3-Hydroxy-2-(6-methylheptanamido)propanamido]-2,2-dimethyl-3-oxopentanoic acid] | could not be truncated to alanine | – | – | – | – | – | – | –
6 | CC(C)CCCCC(=O)N[C@@H](C)C(=O)N[C@@H](CC(C)C)C(=O)C(C)(C)C(=O)O [Compound 11j, (4S)-2,2,6-Trimethyl-4-[(2S)-2-(6-methylheptanamido)propanamido]-3-oxoheptanoic acid] | tolerated | – | – | – | – | – | – | –
7 | CC(C)CCCCC(=O)N[C@@H](Cc1ccccc1)C(=O)N[C@@H](CC(C)C)C(=O)C(C)(C)C(=O)O [Compound 11m, (4S)-2,2,6-Trimethyl-4-[(2S)-2-(6-methylheptanamido)-3-phenylpropanamido]-3-oxoheptanoic acid] | not accepted | – | – | – | – | – | – | –
8 | CC(C)CCCCC(=O)N[C@@H](C)C(=O)N[C@@H](CC(C)C)C(=O)[C@@]1(C)CO1 [Compound 12j, 6-Methyl-N-[(1S)-1-{[(2S)-4-methyl-1-[(2R)-2-methyloxiran-2-yl]-1-oxopentan-2-yl]carbamoyl}ethyl]heptanamide] | – | 1.9 | 1.91 | 3.2 | 3.02 | 2.2 | 2.19 | –
9 | CC(C)CCCCC(=O)N[C@H](C(=O)N[C@@H](CC(C)C)C(=O)[C@@]1(C)CO1)[C@@H](C)O [Compound 12l, N-[(1S)-2-Hydroxy-1-{[(2S)-4-methyl-1-[(2R)-2-methyloxiran-2-yl]-1-oxopentan-2-yl]carbamoyl}propyl]-6-methylheptanamide] | – | 2.1 | 2.09 | 3.7 | 3.55 | 2.1 | 2.14 | –
10 | CCCC(=O)N[C@@H](CO)C(=O)N[C@@H](CC(C)C)C(=O)[C@@]1(C)CO1 [Compound 12n] | – | 5.4 | 5.37 | 5.7 | 5.37 | 4.8 | 4.79 | –
11 | CC(C)C[C@H](NC(=O)[C@H](CO)NC(=O)c1ccccc1)C(=O)[C@@]1(C)CO1 [Compound 12o, (2S)-3-Hydroxy-N-[(2S)-4-methyl-1-[(2R)-2-methyloxiran-2-yl]-1-oxopentan-2-yl]-2-(phenylformamido)propenamide] | – | 3.6 | 3.47 | 7.2 | 7.24 | 2.7 | 2.69 | –
